Experiment [1] relates to paresis/paralysis. Particulars: immediate or sustained release formulations; earlier application; cited from earlier work.
Experiment [2] deals with MS, Lou Gherig's Disease and Parkinson's Disease. Particulars: in vivo; cited from earlier work.
For experiment [3], the system named is central pain in MS patients. Particulars: intravenous 1.0 mg/ml morphine in physiological saline, response only after high doses; cited from earlier work.
Experiment [4] deals with paresis/paralysis of the tongue, larynx, pharynx, esophagus, urinary bladder sphincter, muscles of the lumbar and lumbo-sacral spine and of the pelvis and …. The experiment in a line: Opiate treatment of dogs with neuropathic paresis/paralysis (UROS/OPS case studies). Conditions: dog, in vivo.
Source text: In order to clinically diagnose and/or evaluate the effectiveness of a dose of an anti-opiopathic active agent or formulation, over time, when being used to treat an opiopathic ailment, the following grading protocol can be employed to quantify and document function of the target muscle(s) and/or organ(s).
In grading the evaluations, an organ is considered to be neurologically normal when there is no neuropathology affecting its function. Because in most cases an organ can be clearly identified as having normal neurologic function, decreased neurologic function (paresis), or no neurologic function (paralysis), the documenting of the degree of remaining neurologic function of an organ lends itself to a simple grading system. An organ that functions normally and has no observable signs or symptoms is considered to be neurologically normal and receives the lowest score (0). An organ that has no function as a result of a neurologic/neurogenic ailment and is paralyzed, receives the highest score (10). An organ that has a partial loss of function (paresis) receives a score between (1) and (9), depending on the degree of function remaining. A decrease of the score of a function after administration of an anti-opiopathic active agent or formulation, indicates effectiveness roughly proportional to the relative decrease. […]

Take `CN1CC[C@]23c4c5ccc(O)c4O[C@H]2[C@@H](O)C=C[C@H]3[C@H]1C5.O=S(=O)(O)O` [morphine sulfate]: in experiment [1], the reversal of paresis/paralysis entry is listed as “successful reversal”.

Regarding `O=C1CC[C@@]2(O)[C@H]3Cc4ccc(O)c5c4[C@@]2(CCN3CC2CC2)[C@H]1O5` [naltrexone], in experiment [2], the treatment outcome is reported as “limited success”.

With `CN1CC[C@]23c4c5ccc(O)c4O[C@H]2[C@@H](O)C=C[C@H]3[C@H]1C5` [morphine], the “responsiveness of neuropathic (central) pain” value in experiment [3] is reported as “poorly responsive, but not totally unresponsive”.

On to `COc1ccc2c3c1O[C@H]1C(=O)CC[C@H]4[C@@H](C2)N(C)CC[C@]314` [hydrocodone], for which the reversal of paresis/paralysis result in experiment [1] was “successful reversal”.

For the compound `COc1ccc2c3c1O[C@H]1C(=O)CC[C@@]4(O)[C@@H](C2)N(C)CC[C@]314` [oxycodone], the reversal of paresis/paralysis entry in experiment [1] is “successful reversal”. In experiment [4], the “reversing paresis/paralysis in the larynx” value is listed as “effective” and the “treating urinary bladder sphincter paresis/paralysis” value is on record as “effective”.
